From patent US20120021988A1, “METHODS FOR TREATING IMMUNE THROMBOCYTOPENIA” (priority 2007, published 2012)
Values joined by “and” are separate entries in the source; they are usually repeats but may differ in a detail not shown here. Equal entries are not always repeated. Ends that are not written are not given here.

Tests used:
[1] = test system: human C1q; experiment: Reverse ELISA: inhibition of PAP immune complex binding to C1q coated plates; conditions: for OD 405 nm: PAP pre-incubated with peptide or C1q one hour, C1q coated plates, lower OD = more inhibition, positive control 2.355
From the text: (§1) For this reason, a “reverse ELISA” technique has been used to assess binding of the Fc region to ligands that bind to immune complexed IgG Fc. In a reverse ELISA, the enzyme (e.g., HRP) is not covalently conjugated to the Fc portion of the secondary antibody. Rather, a preformed immune complex of peroxidase-rabbit (or mouse) anti-peroxidase IgG (“PAP” complex) is used. […] In the reverse ELISA system, an Fc CH2-CH3 cleft binding ligand (e.g., purified human C1q) was bound to microwell plates. In the absence of competitor, PAP complexes bound to the immobilized ligand and the reaction between HRP and its substrate produces a signal. This signal was reduced by polypeptides and compounds that inhibited PAP binding to the immobilized ligand.
PAP complexes were formed mixing 2 μl of rabbit anti-peroxidase (Sigma Chemicals, St. Louis, Mo.; Cat. No. P7899) with 50 μl of peroxidase (Sigma-Aldrich, Cat. No. P6782) in 1 ml distilled water. PAP (100 μl) were pre-incubated with 100 μl of peptide for one hour, 100 μl were pre-incubated with 100 μl of peptide or human C1q (Quidel Corp., San Diego, Calif.) for one hour. The C1q/PAP and peptide/PAP mixtures (100 μl) were incubated with C1q coated plates for 30 minutes. After washing, plates were incubated with ATBS (Quidel Corp.) for 15 minutes and read at 405 nm.

[2] = test system: FcγIIIa; experiment: FcγR reverse ELISA: inhibition of PAP immune complex binding (Table 2); conditions: PAP/peptide mixture on FcγR coated plates; positive control 1.588
From the text: as §1
(§2) Once the reverse ELISA protocol was established using the C1q assay, the assay was redesigned using FcγIIa, FcγIIb and FcγIII in place of C1q. Highly purified FcγIIa, FcγIIb and FcγIII (R&D Systems, Minneapolis, Minn.) were immunoadsorbed onto plastic microwells. After optimizing the FcγR reverse ELISA system, simple competitive inhibition experiments using polypeptides provided herein were conducted to investigate their ability to inhibit binding of immune complexes to purified FcγR.
(§3) Falcon microtiter plates were coated with 1:10 dilutions of highly purified FcγIIa, FcγIIb and FcγIII and incubated for 24 hours. The plates were washed and then blocked with 5×BSA blocking solution (Alpha Diagnostic International, San Antonio, Tex.) for 24 hours. PAP immune complexes were formed as described in Example 1. PAP (100 μl) were pre-incubated with 100 μl of peptide for one hour. PAP/peptide mixtures were added to the FcγR coated plates and incubated for one hour. After washing, plates were incubated with ABTS substrate (Quidel Corp.) for 15 minutes and read at 405 nm.

[3] = test system: FcγIIa (R131 allele); experiment: as above; conditions: PAP/peptide mixture on FcγR coated plates; positive control 1.599
From the text: as §1, §2, §3

[4] = test system: FcγIIb; experiment: as above; conditions: PAP/peptide mixture on FcγR coated plates; positive control 1.394
From the text: as §1, §2, §3

[5] = test system: mice having induced ITP; experiment: In vivo treatment of ITP induced by rabbit anti-platelet antibody, platelet counting by flow cytometry; design: species or system CD-1 mice; conditions: for Platelet counts, individual mice: intraperitoneal, 24 hours; for Platelet counts, mean: 3 mice, ITP alone mean 170.7, Nil 1016; for Effect on induced ITP: first experiment, Table 4, 10× and 100× molar
Procedure: Mice: CD-1 mice approximately 6-8 weeks of age were obtained from Charles River (Montreal). The animals were housed 3-5 per cage in filter-topped cages. The temperature and relative humidity were maintained at […] and 35-70%, respectively, and a 12 hour light/dark cycle was used. The mice were fed rodent chow and water ad libitum.
Anti-platelet antibodies to induce ITP: A rabbit anti-platelet antibody (Inter-Cell Technologies, Inc., Jupiter, Fla.; Cat. No. A31440) was used to induce ITP. Each mouse received 10 μl antibody-containing serum, diluted with 190 μl PBS for injection, such that the final injection volume was 200 μl for all groups injected with anti-platelet antibody.
On the day of use, one vial of rabbit anti-platelet antibody was removed from the freezer, placed in a 22° C. water bath, and shaken. The tube was checked every 30 seconds, and when it was completely thawed it was placed in a microcentrifuge and centrifuged at 10,000×g (11,000 rpm) for 10 minutes at 4° C. The supernatant fluid was transferred to a new tube and the pellet was discarded. The supernatant was placed on ice until used or diluted, as appropriate. Unused portions of the sera were discarded.
Therapeutic treatment of ITP: IVIg was used as a standard control treatment for the ITP induced by the rabbit anti-platelet antibody. The IVIg was Gamimmune® N, 10%. Treatment with IVIg consisted of an intraperitoneal injection of 50 mg (500 μl) IVIg, a dose that was equivalent to a dose of 2,000 mg/kg body weight.
Platelet enumeration: All mice were bled via the saphenous vein. 50 μL of blood were collected into 450 μL PBS/1% EDTA. The blood was further diluted in PBS/1% EDTA. Platelets were enumerated by flow cytometry with a Guava microcapillary cytometer (Guava EasyCyteMini, Guava Technologies, Inc., Hayward, Calif.), using forward scatter (FSC) versus side scatter (SSC) to gate platelets.
Peptides used to inhibit ITP: Peptides having the amino acid sequences set forth in SEQ ID NO:2 ([…]), SEQ ID NO:20 ([…]), and a control peptide in which Trp7, Val13 and Trp14 of SEQ ID NO:20 were replaced by alanines ([…]; SEQ ID NO:57) were tested for their ability to inhibit ITP. Alanine substation of Val13 and Trp14 causes a decrease in binding affinity (measured by ΔΔG, where G=Gibbs Energy) of greater than 1,000 fold.
Peptides were stored at −20° C. until the day of use. On the day of use, peptides were removed from the freezer, placed in a 22° C. water bath, shaken, and checked every 30 seconds for thawing. When thawed, the peptides were placed on ice until use. For samples that received a 10× dose of peptide, the following were sequentially added to a 1.5 ml polypropylene Eppendorf tube: 623 μl PBS (pH 7.22), 35 μL rabbit anti-plaletet IgG, and 42 μl peptide, with mixing after each addition. For samples having a 100× dose of peptide, the following were added sequentially to a 1.5 ml polypropylene Eppendorf tube: 245 μl PBS (pH 7.22), 35 μL rabbit anti-plaletet IgG, and 420 μl peptide, with mixing after each addition. The peptides were incubated for at least 30 minutes at 22° C. prior to injection into mice. (A 15 minute incubation in the laboratory, transport of the mixtures to the Vivarium, and injection took roughly an additional 30 minutes.)
The final volume of each peptide mixture was 700 μL, which was sufficient for injection of 3 mice (200 μl/mouse, plus 100 μl to cover dead volume). For the 10× dose/mouse of peptide, 12 μg of peptide (12 μl of 1 mg/ml solution) was mixed with 100 μg of the rabbit anti-platelet IgG (10 μl of 10 mg/ml solution). The volume of 700 μl was about 3.5× the volume injected per mouse (200 μl). To obtain the dose of peptide and rabbit IgG for the 700 μl final volume, dose of peptide or Rabbit IgG per mouse was multiplied by 3.5 (e.g., 12 μl peptide/mouse×3.5=42 μl, 10 μl Rabbit IgG/mouse×3.5=35 μl). PBS (623 μl, pH 7.22) was added to make up the final volume 700 μl. […]

[6] = target: PAP complex: preformed immune complex of peroxidase and rabbit anti-peroxidase IgG (horseradish) (UniProt P00433); experiment: reverse ELISA competition: PAP pre-incubated with peptide, then on C1q-coated plate; signal is PAP left bound to immobilised human C1q (lower = more inhibition)
[7] = target: PAP complex: preformed immune complex of peroxidase and rabbit anti-peroxidase IgG (horseradish) (UniProt P00433); experiment: reverse ELISA competition: PAP pre-incubated with peptide, then on plate coated with FcγIIb; signal is PAP left bound to the receptor
[8] = target: PAP complex: preformed immune complex of peroxidase and rabbit anti-peroxidase IgG (horseradish) (UniProt P00433); experiment: reverse ELISA competition: PAP pre-incubated with peptide, then on plate coated with FcγIIa (R131 allele); signal is PAP left bound to the receptor
[9] = target: PAP complex: preformed immune complex of peroxidase and rabbit anti-peroxidase IgG (horseradish) (UniProt P00433); experiment: reverse ELISA competition: PAP pre-incubated with peptide, then on plate coated with FcγIIIa; signal is PAP left bound to the receptor
[10] = ITP + 10X molar amount of peptide
[11] = ITP + 100X molar amount of peptide

UniProt P00433, sequence (P00433 31-338, one chain of several): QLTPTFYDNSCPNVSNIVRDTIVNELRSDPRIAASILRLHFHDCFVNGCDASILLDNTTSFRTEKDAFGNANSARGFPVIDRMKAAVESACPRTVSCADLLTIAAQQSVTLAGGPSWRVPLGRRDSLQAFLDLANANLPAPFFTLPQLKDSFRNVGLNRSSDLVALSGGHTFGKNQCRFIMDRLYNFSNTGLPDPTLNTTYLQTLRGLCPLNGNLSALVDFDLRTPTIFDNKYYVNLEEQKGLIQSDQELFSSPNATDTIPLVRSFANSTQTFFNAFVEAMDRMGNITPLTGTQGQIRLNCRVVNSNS

APPCAFHLGELVWCT (cysteine pairing not given here) [SEQ ID NO:18]
OD 405 nm [1]: 0.983
OD405 FcγIIIa [2]: 0.880
OD405 FcγIIa (R131 allele) [3]: 0.605
OD405 FcγIIb [4]: 0.380

APPCARHLGELVWCT (cysteine pairing not given here) [SEQ ID NO:16]
OD 405 nm [1]: 0.567
Inhibition of C1q binding (ranking in words) ([1]; summary of Table 1): next best result
OD405 FcγIIIa [2]: 0.709
OD405 FcγIIa (R131 allele) [3]: 0.956
OD405 FcγIIb [4]: 0.768

APPCAWHLGELVWCT (cysteine pairing not given here) [SEQ ID NO:14]
OD 405 nm [1]: 1.148
OD405 FcγIIIa [2]: 0.530
OD405 FcγIIa (R131 allele) [3]: 0.658
OD405 FcγIIb [4]: 0.562

APPDCAAHLGELAACT [SEQ ID NO:57, reference compound]
Platelet counts, individual mice ([5]; ITP + 10X molar amount of peptide, listed as CP): 1.99e+11 L⁻¹ and 1.91e+11 L⁻¹ and 1.43e+11 L⁻¹
Platelet counts, mean [5, 10]: 1.777e+11 L⁻¹
Platelet counts, individual mice ([5]; ITP + 100X molar amount of peptide, listed as CP): 1.55e+11 L⁻¹ and 1.6e+11 L⁻¹ and 1.79e+11 L⁻¹
Platelet counts, mean [5, 11]: 1.647e+11 L⁻¹
Effect on induced ITP [5]: no effect

Asp-Cys-Ala-Phe-His-Leu-Gly-Glu-Leu-Val-Trp-Cys-Thr (DCAFHLGELVWCT) [SEQ ID NO:3]
OD 405 nm [1]: 0.859
OD405 FcγIIIa [2]: 0.810
OD405 FcγIIa (R131 allele) [3]: 0.660
OD405 FcγIIb [4]: 0.510

Asp-Cys-Ala-Trp-His-Leu-Gly-Glu-Leu-Val-Trp-Cys-Thr [SEQ ID NO:2]
OD 405 nm [1]: 1.100
OD405 FcγIIIa [2]: 0.741
OD405 FcγIIa (R131 allele) [3]: 0.561
OD405 FcγIIb [4]: 0.532
Platelet counts, individual mice ([5]; ITP + 10X molar amount of peptide, listed as BP): 1.63e+11 L⁻¹ and 1.17e+11 L⁻¹ and 2.33e+11 L⁻¹
Platelet counts, mean [5, 10]: 1.71e+11 L⁻¹
Platelet counts, individual mice ([5]; ITP + 100X molar amount of peptide, listed as BP): 1.55e+11 L⁻¹ and 1.25e+11 L⁻¹ and 1.94e+11 L⁻¹
Platelet counts, mean [5, 11]: 1.58e+11 L⁻¹
Effect on induced ITP [5]: no effect

APPCARHLGELVWCT [Peptide … (SEQ ID NO:16)]
OD 405 nm [6]: 0.567 OD 405 nm
OD405 [7]: 0.768 OD405
OD405 [8]: 0.956 OD405
OD405 [9]: 0.709 OD405

APPCAFHLGELVWCT [Peptide … (SEQ ID NO:18)]
OD 405 nm [6]: 0.983 OD 405 nm
OD405 [7]: 0.38 OD405
OD405 [8]: 0.605 OD405
OD405 [9]: 0.88 OD405

APPCAWHLGELVWCT [Peptide … (SEQ ID NO:14)]
OD 405 nm [6]: 1.15 OD 405 nm
OD405 [7]: 0.562 OD405
OD405 [8]: 0.658 OD405
OD405 [9]: 0.53 OD405

DCAFHLGELVWCT [Peptide … (SEQ ID NO:3)]
OD 405 nm [6]: 0.859 OD 405 nm
OD405 [7]: 0.51 OD405
OD405 [8]: 0.66 OD405
OD405 [9]: 0.81 OD405
